Test results taken from patent publication EP0096569A2, “Triazole antifungal agents” (Pfizer Limited, priority 1982, dated 1983).

Test system: Candida albicans
Test: in vivo evaluation in mice inoculated with Candida albicans (protection against lethal infection, PD50)
Design: unit not given beside the values
Settings: oral, dose level giving 50% protection against the lethal effect of the infection
Description: The in vivo evaluation of the compounds can be carried out at a series of dose levels by intraperitoneal or intravenous injection or by oral administration, to mice which are inoculated with a strain of Candida albicans. Untreated mice die within 48 hours and the dose level at which the compound provides 50% protection against the lethal effect of the infection (PDSO) is noted.
Activity Data in mice (oral PD50 values)

Compound | PD50
Clc1ccc(C(Cl)(Cn2cncn2)Cn2cncn2)c(Cl)c1 [Product of Example 1, 1,3-Bis-(1H-1,2,4-triazol-1-yl)-2-chloro-2-(2,4-dichlorophenyl) propane] | 0.1
Clc1ccc(C(Br)(Cn2cncn2)Cn2cncn2)c(Cl)c1 [Product of Example 2, 1,3-Bis(lH-1,2,4-triazol-1-yl)-2-bromo-2-(2,4-dichlorophenyl) propane] | 0.03
Fc1ccc(C(Br)(Cn2cncn2)Cn2cncn2)c(F)c1 [Product of Example 3, 1,3-Bis(1H-1,2,4-triazol-1-yl)-2-bromo-2-(2,4-difluorophenyl)propane] | 0.3
FC(Cn1cncn1)(Cn1cncn1)c1ccc(Cl)cc1Cl [Product of Example 4, 1,3-Bis(1H-1,2,4-triazol-1-yl)-2-(2,4-dichlorophenyl)-2-fluoro-propane] | 1.8
Fc1cc(C(Cl)(Cn2cncn2)Cn2cncn2)c(F)cc1Br [Product of Example 5] | 1.6
Fc1ccc(C(Cl)(Cn2cncn2)Cn2cncn2)c(F)c1 [Product of Example 6] | 0.9
ClC(Cn1cncn1)(Cn1cncn1)c1ccc(I)cc1 [Product of Example 7] | 0.2
Clc1ccc(C(Cl)(Cn2cncn2)Cn2cncn2)cc1 [Product of Example 8] | 0.3
Clc1ccc(C(Cl)(Cn2cncn2)Cn2cncn2)nc1 [Product of Example 9, 1,3-Bis(1A-1,2,4-triazol-1-yl)-2-chloro-2-(5-chloropyrid-2-yl)propane] | 0.2
